Converted amounts (≈) assume the structure as drawn. The source made the active and inactive calls. The rule behind the calls is not given here.
Tests used:
Enterococcus faecalis [1] = assay: Antibacterial activity against Enterococcus faecalis EF1-3524; assay type: functional
Klebsiella pneumoniae [2] = assay: Antibacterial activity against Klebsiella pneumonia KP2; assay type: functional
Enterococcus faecalis [3] = assay: Activity against po dosed mouse infected with Enterococcus faecalis; assay type: functional; details: read-out: PD50
Providencia rettgeri = assay: Antibacterial activity against Providencia rettgeri PR9; assay type: functional
Staphylococcus aureus [4] = assay: Antibacterial activity against methicillin-resistant Staphylococcus aureus SA1417; assay type: functional
Pseudomonas aeruginosa = assay: Antibacterial activity against Pseudomonas aeruginosa PA7; assay type: functional
Streptococcus pneumoniae [5] = assay: Antibacterial activity against quinolone-resistant Streptococcus pneumonia SP3763; assay type: functional
Streptococcus pyogenes [6] = assay: Activity against sc dosed mouse infected with Streptococcus pyogenes; assay type: functional; details: read-out: PD50
Streptococcus pyogenes [7] = assay: Antibacterial activity against Streptococcus pyogenes C203 SP1-1; assay type: functional
Haemophilus influenzae = assay: Antibacterial activity against Haemophilus influenzae HI3542; assay type: functional
Escherichia coli [8] = assay: Antibacterial activity against Escherichia coli EC1-10; assay type: functional
Enterococcus faecalis [9] = assay: Antibacterial activity against Enterococcus faecalis MGH2 EF1-1; assay type: functional
Enterococcus faecium = assay: Antibacterial activity against vancomycin-resistant Enterococcus faecium EF4-3489; assay type: functional
Streptococcus pneumoniae [10] = assay: Antibacterial activity against Streptococcus pneumonia SVI SP3; assay type: functional
Moraxella catarrhalis = assay: Antibacterial activity against Moraxella catarrhalis BC-3531; assay type: functional
Staphylococcus aureus [11] = assay: Antibacterial activity against Staphylococcus aureus UC-76 SA-1; assay type: functional
Staphylococcus aureus [12] = assay: Antibacterial activity against Staphylococcus aureus SA2554; assay type: functional
Streptococcus pyogenes [13] = assay: Antibacterial activity against Streptococcus pyogenes […]; assay type: functional
Enterococcus faecalis [14] = assay: Antibacterial activity against Enterococcus faecalis […]; assay type: functional
Klebsiella pneumoniae [15] = assay: Antibacterial activity against Klebsiella pneumonia ESBL KP3729; assay type: functional
Staphylococcus aureus [16] = assay: Antibacterial activity against Staphylococcus aureus SA2558; assay type: functional
Escherichia coli [17] = assay: Antibacterial activity against Escherichia coli EC2549; assay type: functional
Staphylococcus aureus [18] = assay: Antibacterial activity against ciprofolxacin-resistant Staphylococcus aureus SA2017; assay type: functional
Streptococcus pyogenes [19] = assay: Activity against po dosed mouse infected with Streptococcus pyogenes; assay type: functional; details: read-out: PD50
Staphylococcus aureus [20] = assay: Antibacterial activity against Staphylococcus aureus SA1417; assay type: functional
Enterococcus faecalis [21] = assay: Activity against sc dosed mouse infected with Enterococcus faecalis; assay type: functional; details: read-out: PD50
Escherichia coli [22] = assay: Antibacterial activity against Escherichia coli EC2026; assay type: functional
Staphylococcus aureus [23] = assay: Antibacterial activity against Staphylococcus aureus SA2552; assay type: functional
DNA gyrase = DNA gyrase (Escherichia coli, UniProt P0AES4+P0AES6); assay: Inhibition of Escherichia coli gyrase; assay type: functional
Escherichia coli [24] = assay: Inhibition of Escherichia coli DNA synthesis; assay type: functional, organism-based
[25] = target: T1, DNA gyrase (Escherichia coli) (UniProt P0AES6+P0AES4); assay: Displacement of [14C]ciprofloxacin from Escherichia coli gyrase; assay type: protein-complex assay
[26] = target: T1, DNA gyrase (Escherichia coli); assay: Ability to inhibit DNA supercoiling activity of Escherichia coli gyrase; assay type: functional

Row | SMILES | MIC (Enterococcus faecalis [1]) [µg/mL] | MIC (Klebsiella pneumoniae [2]) [µg/mL] | MIC (Providencia rettgeri) [µg/mL] | MIC (Staphylococcus aureus [4]) [µg/mL] | MIC (Pseudomonas aeruginosa) [µg/mL] | MIC (Streptococcus pneumoniae [5]) [µg/mL] | MIC (Streptococcus pyogenes [7]) [µg/mL] | MIC (Haemophilus influenzae) [µg/mL] | MIC (Escherichia coli [8]) [µg/mL] | MIC (Enterococcus faecalis [9]) [µg/mL] | MIC (Enterococcus faecium) [µg/mL] | MIC (Streptococcus pneumoniae [10]) [µg/mL] | MIC (Moraxella catarrhalis) [µg/mL] | MIC (Staphylococcus aureus [11]) [µg/mL] | MIC (Staphylococcus aureus [12]) [µg/mL] | MIC (Klebsiella pneumoniae [15]) [µg/mL] | MIC (Staphylococcus aureus [16]) [µg/mL] | MIC (Staphylococcus aureus [18]) [µg/mL] | MIC (Staphylococcus aureus [20]) [µg/mL] | MIC (Staphylococcus aureus [23]) [µg/mL] | other results
1 | COc1c(N2CC[C@@H]([C@H](C)N)C2)c(F)cc2c(=O)n(N)c(=O)n(C3CC3)c12 | 0.25 (≈ 0.662 µM) | 8 (≈ 21.2 µM) | 4 (≈ 10.6 µM) | 0.25 (≈ 0.662 µM) | 8 (≈ 21.2 µM) | 0.06 (≈ 0.159 µM) | 0.03 (≈ 0.0795 µM) | 0.25 (≈ 0.662 µM) | 2 (≈ 5.3 µM) | 0.13 (≈ 0.344 µM) | 1 (≈ 2.65 µM) | 0.03 (≈ 0.0795 µM) | 1 (≈ 2.65 µM) | 0.13 (≈ 0.344 µM) | 0.25 (≈ 0.662 µM) | 8 (≈ 21.2 µM) | 0.5 (≈ 1.32 µM) | 1 (≈ 2.65 µM) | 0.5 (≈ 1.32 µM) | 0.5 (≈ 1.32 µM) | ED50 (Enterococcus faecalis [3]): 38 mg/kg; ED50 (Streptococcus pyogenes [6]): 1.2 mg/kg; MIC (Streptococcus pyogenes [13]): 0.03 µg/mL (≈ 0.0795 µM); MIC (Enterococcus faecalis [14]): 0.25 µg/mL (≈ 0.662 µM); MIC (Escherichia coli [17]): 0.13 µg/mL (≈ 0.344 µM); ED50 (Streptococcus pyogenes [19]): 3.1 mg/kg; ED50 (Enterococcus faecalis [21]): 11 mg/kg; MIC (Escherichia coli [22]): 4 µg/mL (≈ 10.6 µM); IC50 (DNA gyrase): 600 nM
2 | Cc1c(N2CC[C@@H]([C@H](C)N)C2)c(F)cc2c(=O)n(N)c(=O)n(C3CC3)c12 | 0.25 (≈ 0.692 µM) | 1 (≈ 2.77 µM) | 2 (≈ 5.53 µM) | 0.125 (≈ 0.346 µM) | 4 (≈ 11.1 µM) | 0.06 (≈ 0.166 µM) | 0.015 (≈ 0.0415 µM) | 0.125 (≈ 0.346 µM) | 1 (≈ 2.77 µM) | 0.125 (≈ 0.346 µM) | 1 (≈ 2.77 µM) | 0.015 (≈ 0.0415 µM) | 0.25 (≈ 0.692 µM) | 0.06 (≈ 0.166 µM) | 0.13 (≈ 0.36 µM) | 2 (≈ 5.53 µM) | 0.25 (≈ 0.692 µM) | 0.5 (≈ 1.38 µM) | 0.125 (≈ 0.346 µM) | 0.25 (≈ 0.692 µM) | Activity (Escherichia coli [24]): Active; ED50 (Enterococcus faecalis [3]): 19 mg/kg; Activity [25]: Active; ED50 (Streptococcus pyogenes [6]): 0.27 mg/kg; MIC (Streptococcus pyogenes [13]): 0.015 µg/mL (≈ 0.0415 µM); MIC (Enterococcus faecalis [14]): 0.06 µg/mL (≈ 0.166 µM); MIC (Escherichia coli [17]): 0.03 µg/mL (≈ 0.083 µM); Activity [26]: Active; ED50 (Streptococcus pyogenes [19]): 1.4 mg/kg; ED50 (Enterococcus faecalis [21]): 4.2 mg/kg; MIC (Escherichia coli [22]): 1 µg/mL (≈ 2.77 µM); IC50 (DNA gyrase): 200 nM
3 | O=C(O)c1cn(C2CC2)c2cc(N3CCNCC3)c(F)cc2c1=O [CIPROFLOXACIN] | 32 (≈ 96.6 µM) | – | 0.06 (≈ 0.181 µM) | 0.5 (≈ 1.51 µM) | 0.06 (≈ 0.181 µM) | 64 (≈ 193 µM) | 0.5 (≈ 1.51 µM) | 0.008 (≈ 0.0241 µM) | – | 0.5 (≈ 1.51 µM) | > 64 | 1 (≈ 3.02 µM) | 0.03 (≈ 0.0905 µM) | 0.13 (≈ 0.392 µM) | 2 (≈ 6.04 µM) | – | 64 (≈ 193 µM) | > 64 | 0.5 (≈ 1.51 µM) | – | –
4 | C[C@H]1NCc2cc(-c3ccc4c(=O)c(C(=O)O)cn(C5CC5)c4c3OC(F)F)ccc21 [GARENOXACIN] | 4 (≈ 9.38 µM) | 0.06 (≈ 0.141 µM) | 0.06 (≈ 0.141 µM) | 0.03 (≈ 0.0704 µM) | 1 (≈ 2.35 µM) | 1 (≈ 2.35 µM) | 0.06 (≈ 0.141 µM) | 0.015 (≈ 0.0352 µM) | 0.25 (≈ 0.586 µM) | 0.125 (≈ 0.293 µM) | 8 (≈ 18.8 µM) | 0.03 (≈ 0.0704 µM) | 0.03 (≈ 0.0704 µM) | 0.015 (≈ 0.0352 µM) | 0.03 (≈ 0.0704 µM) | 32 (≈ 75 µM) | 2 (≈ 4.69 µM) | 2 (≈ 4.69 µM) | 0.06 (≈ 0.141 µM) | 0.03 (≈ 0.0704 µM) | MIC (Escherichia coli [17]): 0.008 µg/mL (≈ 0.0188 µM); MIC (Escherichia coli [22]): 0.03 µg/mL (≈ 0.0704 µM)
5 | COc1c(N2CCNC(C)C2)c(F)cc2c(=O)c(C(=O)O)cn(C3CC3)c12 (stereo not drawn) [GATIFLOXACIN] | 16 (≈ 42.6 µM) | 0.06 (≈ 0.16 µM) | 0.5 (≈ 1.33 µM) | 0.125 (≈ 0.333 µM) | 0.5 (≈ 1.33 µM) | 4 (≈ 10.7 µM) | 0.5 (≈ 1.33 µM) | 0.015 (≈ 0.04 µM) | 0.06 (≈ 0.16 µM) | 0.5 (≈ 1.33 µM) | 32 (≈ 85.2 µM) | 0.125 (≈ 0.333 µM) | 0.03 (≈ 0.0799 µM) | 0.03 (≈ 0.0799 µM) | 0.125 (≈ 0.333 µM) | 8 (≈ 21.3 µM) | 4 (≈ 10.7 µM) | 8 (≈ 21.3 µM) | 0.125 (≈ 0.333 µM) | 0.125 (≈ 0.333 µM) | MIC (Escherichia coli [17]): < 0.06 µg/mL; MIC (Escherichia coli [22]): < 0.06 µg/mL
6 | C[C@H]1COc2c(N3CCN(C)CC3)c(F)cc3c(=O)c(C(=O)O)cn1c23.C[C@H]1COc2c(N3CCN(C)CC3)c(F)cc3c(=O)c(C(=O)O)cn1c23.O [LEVOFLOXACIN] | 32 | 0.03 | 0.5 | 0.25 | 0.5 | – | 0.5 | 0.008 | – | 1 | 64 | – | 0.03 | 0.125 | 0.5 | 8 | 8 | 8 | 0.25 | 0.25 | –

Source: ChEMBL document CHEMBL1137308 (J Med Chem, 2006)
